pEC50: −log10 of the molar value. Like-named read-outs stand apart in the source and are kept apart here.
Legend:
[1] = MRC5 cytotoxicity assay; type: cell-based; details: human, MRC5SV2 cells (human embryonic lung fibroblasts); Table 5; geometric mean of at least two independent tests
In short: (§1)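 PMM (harvested 2 days after 2% potato starch peritoneal stimulation) or MRC5SV2 human lung fibroblasts at 3 × 10^4 cells/mL were exposed to compound for three days at 37 °C, 5% CO2. Viability was read by resazurin fluorescence (λex 550, λem 590 nm) after 4 h, as % growth reduction vs untreated controls.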

[2] = Hamster oral pharmacokinetic study; type: in vivo, golden Syrian hamsters; details: female, golden Syrian, plasma, single p.o. dose 50 mg/kg, read-out: AUC0–24 after single p.o. dose of 50 mg/kg
Experimental: […] The K2-EDTA anticoagulant was added to blood samples collected from 0.25 to 36 h, which were processed to plasma and stabilized with phosphoric acid (1% final) before analysis by LC-MS/MS. PK parameters were calculated using WinNonlin software (version 6.3).

[3] = PMM cytotoxicity assay; type: cell-based; details: mouse, primary peritoneal mouse macrophages (PMM)
In short: as §1

[4] = Liver microsome stability, human; type: in vitro ADME; details: for microsomal CLint at 1 μM: human liver microsomes, pH 7.4, Table 5, read-out: HLM Clint
In short: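 Compounds at 1 μM incubated at 37 °C with liver microsomes (Balb/c mouse, golden Syrian hamster, Beagle dog, human) plus NADPH regenerating system in 100 mM phosphate buffer pH 7.4, 0.4 or 0.8 mg/mL protein. Samples taken from 0 up to 60, 90 or 120 min, quenched in cold methanol and analysed by LC-MS/MS.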

[5] = test system: L. infantum; test: Intramacrophage L. infantum assay; type: cell-based; details: Leishmania infantum
In short: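 Ex vivo splenic amastigotes from infected hamsters used to infect primary macrophages (3 × 10^4 cells/4.5 × 10^5 parasites per well) in RPMI-1640 with 5% inactivated FCS. After 5 days' exposure, Giemsa-stained burdens counted microscopically versus untreated infected (100%) and uninfected (0%) controls; EC50 from 8-point 2-fold dilutions.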

[6] = 14-day exploratory toxicology study in rats; details: 14-day study
[7] = test system: L. donovani; test: L. donovani mouse model of VL; type: in vivo
Experimental: Female BALB/c mice were infected with 2 × 10^7L. donovani amastigotes/0.2 mL i.v. harvested from the spleen of an infected donor RAG1B6 mouse (LSHTM). After 7 days, the mice were treated with miltefosine or DNDI-6148 for 5 consecutive days. Five days after the final dose, mice were humanely killed, liver and spleens were dissected and weighed, and impression smears were made for the calculation of parasite burden (Stauber equation).[25]

[8] = Table 5, geometric mean of at least two independent tests
[9] = Table 5, geometric mean of at least two independent tests, read-out: intramacrophage L. infantum amastigote EC50

**Q.** Which results are given for `Cc1c(C(=O)Nc2ccc3c(c2)B(O)OC3)nnn1-c1ccccn1` [Compound 23, N-(1-Hydroxy-1,3-dihydrobenzo[c][1,2]oxaborol-6-yl)-5-methyl-1-(pyridin-2-yl)-1H-1,2,3-triazole-4-carboxamide]?
**A.** CC50 at 3 days [1]: > 64 µM; AUC(0-t) [2]: 120000 ng·h/mL; EC50 at 3 days ([3]; Table 2, geometric mean of at least three independent assays): > 64 µM; CC50 at 3 days [3, 8]: > 64 µM; microsome Clint ([4]; Table 10): <11.9 μL/min/mg protein; microsomal CLint at 1 μM [4]: < 11.9 µL/min/mg; pEC50 ([5]; Table 2, geometric mean of at least three independent assays, read-out: intramacrophage L. infantum EC50): 5.74; pEC50 [5, 9]: 5.74; no adverse effect limit ([6]; male and female Sprague-Dawley rats): 50 mg/kg/day; reduction in liver parasite burden following 5 days of p.o. dosing BID, L. donovani ([7]; 25 mg/kg BID): 97.1%; reduction in liver parasite burden following 5 days of p.o. dosing BID, L. donovani ([7]; 50 mg/kg BID): 99.7%

**Q.** With `Cc1c(-c2ccccn2)coc1C(=O)Nc1ccc2c(c1)B(O)OC2` [Compound 28, N-(1-Hydroxy-1,3-dihydrobenzo[c][1,2]oxaborol-6-yl)-3-methyl-4-(pyridin-2-yl)furan-2-carboxamide] as the compound, how does the CC50 at 72 h [1] read?
**A.** The CC50 at 72 h was 18 µM.

**Q.** What about the AUC(0-t) [2] of the same compound?
**A.** The AUC(0-t) was 21000 ng·h/mL.

**Q.** What about the CC50 at 72 h [3, 8] of the same compound?
**A.** The CC50 at 72 h was 49 µM.

**Q.** And the CC50 at 3 days ([3]; Table 6, geometric mean of at least two independent tests)?
**A.** The CC50 at 3 days was 54 µM.

**Q.** What about the microsomal CLint at 1 μM [4] of the same compound?
**A.** Its microsomal CLint at 1 μM is under 11.9 µL/min/mg.

**Q.** And the pEC50 [5, 9]?
**A.** Its pEC50 is 6.30.

**Q.** And the toxicity finding ([6]; rats, daily dosing of 25 mg/kg)?
**A.** The toxicity finding was “significant multiorgan toxicity”.

**Q.** And the “reduction in liver parasite burden following 5 days of p.o. dosing BID, L. donovani” value ([7]; 25 mg/kg BID)?
**A.** Its value is 97.5%.

**Q.** What about the “reduction in liver parasite burden following 5 days of p.o. dosing BID, L. donovani” value ([7]; 50 mg/kg BID) of the same compound?
**A.** Its value is 99.5%.

From PMC8591608, “DNDI-6148: A Novel Benzoxaborole Preclinical Candidate for the Treatment of Visceral Leishmaniasis” (Journal of Medicinal Chemistry, 2021)
